In one experiment the target is T1, VHL (Homo sapiens, UniProt P40337).
T1 construct: Cells stably expressing the BRD4BD2-GFP with mCherry reporter (40) were seeded; endogenous in cells
The experiment can be described thus: Cellular VHL engagement assay (BRD4BD2-GFP / mCherry reporter cells). The experiment is classed as cell-based. The conditions noted are these: with 250 nM AT1, 5 h. As to the method: Cells stably expressing the BRD4BD2-GFP with mCherry reporter (40) were seeded at 30-50% confluency in 384-well plates with 50 μL per well of FluoroBrite™ DMEM media (Thermo Fisher Scientific, A18967) supplemented with 10% FBS a day before compound treatment. Compounds and 250 nM AT1((2S,4R)-1-(2R)-2-Acetamido-3-[[6-[2-[(6S)-4-(4-chlorophenyl)-2,3,9-trimethyl-6H-thieno[3,2-f][1,2,4]triazolo[4,3-a][1,4]diazepin-6-yl]acetamido]hexyl]thio]-3-methylbutanoyl]-4-hydroxy-N-[4-(4-methylthiazol-5-yl)benzyl)pyrrolidinine-2-carboxamide) were dispensed using a D300e Digital Dispenser (HP), normalized to 0.5% DMSO, and incubated with the cells for 5 h. The assay plate was imaged immediately using an Acumen® High Content Imager (TTP Labtech) with 488 nm and 561 nm lasers in a […] grid per well format. The resulting images were analyzed using CellProfiler™.
A series of image analysis steps (an ‘image analysis pipeline’) was constructed. First, the red and green channels were aligned and cropped to target the middle of each well (to avoid analysis of the heavily clumped cells at the edges). A background illumination function was calculated for both red and green channels of each well individually and subtracted to correct for illumination variations across the 384-well plate from various sources of error. An additional step was then applied to the green channel to suppress the analysis of large auto fluorescent artifacts and enhance the analysis of cell specific fluorescence by way of selecting for objects under a given size (30 A.U.) and with a given shape (speckles). mCherry-positive cells were then identified in the red channel by filtering for objects 8-60 pixels in diameter and by using intensity to distinguish between clumped objects. The green channel was then segmented into GFP positive and negative areas and objects were labeled as GFP positive if at least 40% of it overlapped with a GFP positive area. The fraction of GFP-positive cells/mCherry-positive cells in each well was then calculated, and the green and red images were rescaled for visualization.

The next experiment addresses HDAC3 (Homo sapiens, UniProt O15379). Nature of the experiment: Change in cellular protein abundance (TMT proteomics) in Kelly cells. Format: cell-based. More on the design: relative change in relative protein abundance with treatment of Kelly cells; endogenous in cells; host or cells: Kelly cells. The following applies: scatter plots FIG. 1 and FIG. 3. The method, then:
Lysis buffer (8 M Urea, 50 mM NaCl, 50 mM 4-(2hydroxyethyl)-1-piperazineethanesulfonic acid (EPPS) pH 8.5, protease and phosphatase inhibitors from Roche®) were added to the cell pellets and homogenized by 20 passes through a 21 gauge (1.25 in. long) needle to achieve a cell lysate with a protein concentration between 1-4 mg mL-1. A micro-BCA assay (Pierce™) was used to determine the final protein concentration in the cell lysate. 200 μg of protein for each sample were reduced and alkylated as described in Donovan et al., Elife 7:e38430 (2018).
Proteins were precipitated using methanol/chloroform. Four volumes of methanol were added to the cell lysate, followed by one volume of chloroform, and finally three volumes of water. The mixture was vortexed and centrifuged to separate the chloroform phase from the aqueous phase. The precipitated protein was washed with three volumes of methanol, centrifuged and the resulting washed precipitated protein was allowed to air dry. The precipitated protein was resuspended in 4 M Urea, 50 mM HEPES pH 7.4, followed by dilution to 1 M urea with the addition of 200 mM EPPS, pH 8. Proteins were first digested with LysC (1:50; enzyme:protein) for 12 hours at room temperature. The LysC digestion was diluted to 0.5 M Urea with 200 mM EPPS pH 8 followed by digestion with trypsin (1:50; enzyme:protein) for 6 hours at 37° C. Tandem mass tag (TMT) reagents (Thermo Fisher Scientific) were dissolved in anhydrous acetonitrile (ACN) according to manufacturer's instructions.
Anhydrous ACN was added to each peptide sample to a final concentration of 30% v/v, and labeling was induced with the addition of TMT reagent to each sample at a ratio of 1:4 peptide:TMT label. The 10-plex labeling reactions were performed for 1.5 hours at room temperature and the reaction quenched by the addition of hydroxylamine to a final concentration of 0.3% for 15 minutes at room temperature. The sample channels were combined at a 1:1:1:1:1:1:1:1:1:1:1 ratio, desalted using Cis solid phase extraction cartridges (Waters®) and analyzed by LC-MS for channel ratio comparison. Samples were then combined using the adjusted volumes determined in the channel ratio analysis and dried down in a speed vacuum. The combined sample was then resuspended in 1% formic acid, and acidified (pH 2-3) before being subjected to desalting with C18 SPE (Sep-Pak®, Waters®). Samples were then offline fractionated into 96 fractions by high pH reverse-phase HPLC (Agilent® LC1260) through an aeris peptide xb-c18 column (Phenomenex®) with mobile phase A containing 5% acetonitrile and 10 mM NH4HCO3 in LC-MS grade H2O, and mobile phase B containing 90% acetonitrile and 10 mM NH4HCO3 in LC-MS grade H2O (both pH 8.0). The 96 resulting fractions were then pooled in a non-continuous manner into 24 fractions and these fractions were used for subsequent mass spectrometry analysis.
Data were collected using an Orbitrap Fusion™ Lumos™ mass spectrometer (Thermo Fisher Scientific, San Jose, Calif., USA) coupled with a Proxeon EASY-nLC™ 1200 LC pump (Thermo Fisher Scientific). Peptides were separated on an EasySpray™ ES803 75 μm inner diameter microcapillary column (ThermoFisher Scientific).
Each analysis used an MS3-based TMT method as described previously. The data were acquired using a mass range of m z 340-1350, resolution 120,000, automatic gain control (AGC) target 1×10^6, maximum injection time 100 ms, dynamic exclusion of 120 seconds for the peptide measurements in the Orbitrap Fusion™ Lumos™ mass spectrometer. Data dependent MS2 spectra were acquired in the ion trap with a normalized collision energy (NCE) set at 55%, AGC target set to 1.5×10^5 and a maximum injection time of 150 ms. […]

For orientation: IC50 means the concentration needed to halve the response being measured. A low value points to greater potency.

T1 sequence (P40337 whole entry, species assumed): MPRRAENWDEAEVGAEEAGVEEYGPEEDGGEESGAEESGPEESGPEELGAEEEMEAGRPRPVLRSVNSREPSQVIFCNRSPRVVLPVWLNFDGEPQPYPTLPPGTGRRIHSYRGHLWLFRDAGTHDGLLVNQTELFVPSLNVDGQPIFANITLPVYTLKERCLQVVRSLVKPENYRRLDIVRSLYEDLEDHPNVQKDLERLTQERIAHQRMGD
Chain of HDAC3 (O15379 whole entry): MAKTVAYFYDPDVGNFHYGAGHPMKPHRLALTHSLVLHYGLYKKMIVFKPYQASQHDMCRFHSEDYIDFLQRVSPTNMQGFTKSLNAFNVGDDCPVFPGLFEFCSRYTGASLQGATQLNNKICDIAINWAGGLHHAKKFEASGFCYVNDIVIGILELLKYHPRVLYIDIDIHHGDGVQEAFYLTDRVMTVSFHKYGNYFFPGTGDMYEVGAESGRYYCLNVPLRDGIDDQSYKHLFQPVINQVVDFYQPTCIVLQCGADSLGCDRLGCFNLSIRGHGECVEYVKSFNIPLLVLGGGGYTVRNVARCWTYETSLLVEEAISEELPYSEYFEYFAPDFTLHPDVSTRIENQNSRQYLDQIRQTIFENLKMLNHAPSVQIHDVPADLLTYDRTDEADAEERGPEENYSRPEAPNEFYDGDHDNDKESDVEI

At VHL, `Cc1ncsc1-c1ccc([C@H](C)NC(=O)[C@@H]2C[C@@H](O)CN2C(=O)[C@@H](NC(=O)CCOCCOCCOCCN(CCc2c[nH]c3ccccc23)Cc2ccc(/C=C/C(=O)NO)cc2)C(C)(C)C)cc1` [Compound 3, (2S,4R)-1-((S)-17-(tert-butyl)-3-(4-((E)-3-(hydroxyamino)-3-oxoprop-1-en-1-yl)benzyl)-1-(1H-indol-3-yl)-15-oxo-6,9,12-trioxa-3,16-diazaoctadecan-18-oyl)-4-hydroxy-N—((S)-1-(4-(4-methylthiazol-5-yl)phenyl)ethyl)pyrrolidine-2-carboxamide] yielded an IC50 of 15.1 µM. The “HDAC3 protein levels, relative protein abundance compared to DMSO control” value at HDAC3 is “significant and selective reduction”.

`Cc1ncsc1-c1ccc(CNC(=O)[C@@H]2C[C@@H](O)CN2C(=O)[C@@H](NC(=O)C2(F)CC2)C(C)(C)C)c(OCCOCCOCCN(CCc2c[nH]c3ccccc23)Cc2ccc(/C=C/C(=O)NO)cc2)c1` [Compound 8, (2S,4R)—N-(2-(2-(2-(2-((2-(1H-indol-3-yl)ethyl)(4-((E)-3-(hydroxyamino)-3-oxoprop-1-en-1-yl)benzyl)amino)ethoxy)ethoxy)ethoxy)-4-(4-methylthiazol-5-yl)benzyl)-1-((S)-2-(1-fluorocyclopropane-1-carboxamido)-3,3-dimethylbutanoyl)-4-hydroxypyrrolidine-2-carboxamide] came in with an IC50 against VHL of 10.1 µM.

The molecule `Cc1ncsc1-c1ccc([C@H](C)NC(=O)[C@@H]2C[C@@H](O)CN2C(=O)[C@@H](NC(=O)CCOCCOCCOCCOCCN(CCc2c[nH]c3ccccc23)Cc2ccc(/C=C/C(=O)NO)cc2)C(C)(C)C)cc1` [Compound 4] showed an IC50 against VHL of 22.9 µM.

On to `Cc1ncsc1-c1ccc([C@H](C)NC(=O)[C@@H]2C[C@@H](O)CN2C(=O)[C@@H](NC(=O)CCOCCOCCOCCN(CCc2c[nH]c3ccccc23)Cc2ccc(/C=C/C(=O)Nc3ccccc3N)cc2)C(C)(C)C)cc1` [Compound 11, (2S,4R)-1-((S)-3-(4-((E)-3-((2-aminophenyl)amino)-3-oxoprop-1-en-1-yl)benzyl)-17-(tert-butyl)-1-(1H-indol-3-yl)-15-oxo-6,9,12-trioxa-3,16-diazaoctadecan-18-oyl)-4-hydroxy-N—((S)-1-(4-(4-methylthiazol-5-yl)phenyl)ethyl)pyrrolidine-2-carboxamide], for which the “HDAC3 protein levels, relative protein abundance compared to DMSO control” value at HDAC3 is “significant and selective reduction”.

Take `Cc1ncsc1-c1ccc([C@H](C)NC(=O)[C@@H]2C[C@@H](O)CN2C(=O)[C@@H](NC(=O)CCOCCOCCOCCOCCN(CCc2c[nH]c3ccccc23)Cc2ccc(/C=C/C(=O)Nc3ccccc3N)cc2)C(C)(C)C)cc1` [Compound 12, (2S,4R)-1-((S)-3-(4-((E)-3-((2-aminophenyl)amino)-3-oxoprop-1-en-1-yl)benzyl)-20-(tert-butyl)-1-(1H-indol-3-yl)-18-oxo-6,9,12,15-tetraoxa-3,19-diazahenicosan-21-oyl)-4-hydroxy-N—((S)-1-(4-(4-methylthiazol-5-yl)phenyl)ethyl)pyrrolidine-2-carboxamide]: on HDAC3, the “HDAC3 protein levels, relative protein abundance compared to DMSO control” value is “significant and selective reduction”.

With `Cc1ncsc1-c1ccc([C@H](C)NC(=O)[C@@H]2C[C@@H](O)CN2C(=O)[C@@H](NC(=O)CCOCCOCCN(CCc2c[nH]c3ccccc23)Cc2ccc(/C=C/C(=O)Nc3ccccc3N)cc2)C(C)(C)C)cc1` [Compound 10], the IC50 against VHL is 9 µM. Moreover, on HDAC3, the “HDAC3 protein levels, relative protein abundance compared to DMSO control” value was “significant and selective reduction”.

`Cc1ncsc1-c1ccc([C@H](C)NC(=O)[C@@H]2C[C@@H](O)CN2C(=O)[C@@H](NC(=O)CCOCCOCCOCCOCCOCCN(CCc2c[nH]c3ccccc23)Cc2ccc(/C=C/C(=O)NO)cc2)C(C)(C)C)cc1` [Compound 5, (2S,4R)-1-((S)-23-(tert-butyl)-3-(4-((E)-3-(hydroxyamino)-3-oxoprop-1-en-1-yl)benzyl)-1-(1H-indol-3-yl)-21-oxo-6,9,12,15,18-pentaoxa-3,22-diazatetracosan-24-oyl)-4-hydroxy-N—((S)-1-(4-(4-methylthiazol-5-yl)phenyl)ethyl)pyrrolidine-2-carboxamide] yielded a half-maximal inhibitory concentration (IC50) against VHL of 19.3 µM. Also, the “HDAC3 protein levels, relative protein abundance compared to DMSO control” value on HDAC3 was “significant and selective reduction”.

Values taken from patent publication US20220401564A1 (DANA-FARBER CANCER INSTITUTE, INC., priority 2019, published 2022).
